This is an account of results in US5750754A, “Heterocyclic compounds” (Zeneca Limited, priority 1993, dated 1998).

Data set [1] addresses T1, human, citrated, platelet-rich plasma (Homo sapiens, UniProt P05106+P08514).
T1 construct: aggregating human, citrated, platelet-rich plasma; endogenous in cells; host or cells: human platelets in citrated platelet-rich plasma
Description: Test (a): inhibition of ADP stimulated platelet aggregation (Born). It is filed as cell-based. The note with it: ADP induced aggregation of human platelet-rich plasma; for Kb: read-out: Test (a): pA2 value indicating potency of platelet aggregation inhibition (converted). Summed up: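 ADP added to human citrated platelet-rich plasma to build aggregation dose-response curves, repeated with increasing test compound (generally 10-^5 M to 10-^10 M). pA2 derived from the 50% response value for ADP with vs. without compound, averaged over several concentrations.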

Data set [2] concerns the target T2, purified human platelet fibrinogen receptor (GPIIb/IIIa) (Homo sapiens, UniProt P05106+P08514).
T2 construct: is isolated from human platelet lysates; from tissue
Description: Test (b): GPIIb/IIIa ELISA, inhibition of biotinylated fibrinogen binding. The note with it: purified human platelet GPIIb/IIIa, ELISA; for IC50: read-out: Test (b): pIC50 (-log(IC50)), 50% inhibition of biotinylated fibrinogen binding to GPIIb/IIIa (converted). The essentials: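 GPIIb/IIIa affinity-purified from human platelet lysates was coated on plates, blocked, then incubated 2 h at 30 °C with biotinylated fibrinogen ([…]) plus compound. Bound fibrinogen detected via streptavidin/biotinylated HRP and TMB, OD at 650 nm; pIC50 for 50% binding inhibition.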
Background: In an ELISA, binding on a coated surface is turned into a signal by an enzyme label.

For data set [3], the system named is Alderley Park Wistar rats. The data set can be described thus: Repeated oral dose study in the rat (liver effects, tolerability). The note with it: rat, oral, 500 mg/kg/day, seven days. It is filed as in vivo. Here is the method:
The following is a description of a study of the effects of the (-)-(3R) compound of Example 246 and the corresponding (3RS)-racemic mixture of Example 203 in the rat. Four groups of ten Alderley Park Wistar rats (each group comprising 5 male and 5 female rats) were dose orally with the (3RS)-racemic mixture of Example 203 at daily doses of 0, 25, 100 or 500 mg/kg. Dosing was continued for a total of seven days. The animals were killed and examined.
Four groups of ten Alderley Park Wistar rats (each group comprising 5 male and 5 female rats) were dosed orally with the (-)-(3R) compound of Example 246 at daily doses of 0, 50, 250 and 1000 mg/kg. The highest dose was not tolerated. After four or five days, four of the animals from this group were killed. The remaining six animals were dosed at 500 mg/kg/day for the remainder of the study. Dosing was continued for a total of fourteen days. The animals were killed and examined.

Data set [4] relates to aggregation of human blood platelets. Description: Test (a) modified to assess activity on oral administration (ex vivo). The note with it: dogs, 5 mg/kg. The data set is classed as in vivo, dog. Here is the method:
Test (a) may be modified so as to assess the effects of a test compound ex vivo on the aggregation of human blood platelets after administration of the test compound to a laboratory animal, such as a rat, rabbit, guinea pig, mouse or dog. For example, groups of four male, fasted Alderley Park Wistar rats are orally dosed with a test compound or appropriate vehicle, and at suitable time intervals (1,3,5 and 8 hours after dosing) animals are anaesthetised with fluothane and bled by heart puncture. Blood is collected into 3.2% citrate (1 part to 9 parts whole blood) and platelet poor plasma (ppp) prepared by centrifugation (4500×g for 10 min). […]
Equal volumes (125 μl) of rat ppp and human prp are mixed together, ADP added, and the whole incubated (37° C.) and stirred (900 rpm) in a BioData platelet aggregometer. Aggregation is induced with ADP and agonist EC50 values calculated for human prp/rat ppp mixtures from animals dosed with test compound or vehicle. A mean concentration ratio (concentration of ADP required to cause a 50% aggregation response in human prp/rat ppp mixtures from animals dosed with antagonist, divided by the concentration of ADP to cause 50% aggregation in human prp/rat ppp mixtures from animals dosed with vehicle) is calculated at each time point.

Structures can show the parent of a compound that is named as a salt.

T2 sequence (P08514 32-887 limits assumed): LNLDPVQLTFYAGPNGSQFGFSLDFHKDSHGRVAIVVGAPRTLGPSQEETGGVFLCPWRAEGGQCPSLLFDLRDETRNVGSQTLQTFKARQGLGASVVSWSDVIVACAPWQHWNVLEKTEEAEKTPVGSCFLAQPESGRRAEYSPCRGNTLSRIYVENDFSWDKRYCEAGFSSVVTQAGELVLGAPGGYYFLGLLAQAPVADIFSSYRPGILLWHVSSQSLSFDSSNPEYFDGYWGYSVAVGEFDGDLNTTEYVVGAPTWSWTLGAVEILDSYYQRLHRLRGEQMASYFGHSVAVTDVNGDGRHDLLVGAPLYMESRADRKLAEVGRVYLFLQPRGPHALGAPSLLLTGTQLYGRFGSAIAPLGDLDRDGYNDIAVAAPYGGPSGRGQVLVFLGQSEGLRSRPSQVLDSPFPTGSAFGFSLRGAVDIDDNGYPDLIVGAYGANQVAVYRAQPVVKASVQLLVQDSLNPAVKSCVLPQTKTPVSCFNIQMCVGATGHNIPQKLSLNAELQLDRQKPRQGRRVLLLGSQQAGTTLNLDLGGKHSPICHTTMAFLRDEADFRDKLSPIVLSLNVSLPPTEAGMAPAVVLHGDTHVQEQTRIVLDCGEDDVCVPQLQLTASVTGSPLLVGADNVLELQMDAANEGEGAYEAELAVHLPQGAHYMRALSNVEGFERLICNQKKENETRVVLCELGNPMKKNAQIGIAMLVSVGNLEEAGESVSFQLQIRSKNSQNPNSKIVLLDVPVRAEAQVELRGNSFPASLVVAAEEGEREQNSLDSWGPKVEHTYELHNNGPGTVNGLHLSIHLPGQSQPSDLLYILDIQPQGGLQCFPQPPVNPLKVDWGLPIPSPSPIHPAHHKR
T2 sequence (P08514 891-1039 limits assumed): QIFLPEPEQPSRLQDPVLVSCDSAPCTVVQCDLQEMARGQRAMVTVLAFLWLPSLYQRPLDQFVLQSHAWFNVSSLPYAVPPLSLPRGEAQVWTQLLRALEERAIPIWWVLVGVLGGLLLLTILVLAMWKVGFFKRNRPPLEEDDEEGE
T2 sequence (P05106 27-788): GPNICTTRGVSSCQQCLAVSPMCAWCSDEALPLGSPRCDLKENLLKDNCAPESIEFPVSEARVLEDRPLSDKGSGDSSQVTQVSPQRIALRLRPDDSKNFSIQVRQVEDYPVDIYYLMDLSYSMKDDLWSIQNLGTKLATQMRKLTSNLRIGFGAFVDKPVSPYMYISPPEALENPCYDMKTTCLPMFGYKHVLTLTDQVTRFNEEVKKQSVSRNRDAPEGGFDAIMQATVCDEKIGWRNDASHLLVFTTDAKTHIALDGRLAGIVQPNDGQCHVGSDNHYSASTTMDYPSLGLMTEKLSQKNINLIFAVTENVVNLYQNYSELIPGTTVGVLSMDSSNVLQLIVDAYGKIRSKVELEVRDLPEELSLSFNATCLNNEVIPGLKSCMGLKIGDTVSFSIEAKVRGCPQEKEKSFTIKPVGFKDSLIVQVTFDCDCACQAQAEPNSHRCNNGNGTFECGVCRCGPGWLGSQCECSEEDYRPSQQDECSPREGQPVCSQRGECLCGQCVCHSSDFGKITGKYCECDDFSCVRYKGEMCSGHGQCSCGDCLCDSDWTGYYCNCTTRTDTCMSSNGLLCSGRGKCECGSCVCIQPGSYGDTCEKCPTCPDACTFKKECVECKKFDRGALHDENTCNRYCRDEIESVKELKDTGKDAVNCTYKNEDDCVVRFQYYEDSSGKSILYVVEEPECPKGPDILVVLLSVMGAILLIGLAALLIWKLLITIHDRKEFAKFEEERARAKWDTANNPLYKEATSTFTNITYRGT
T1 sequence (P08514 32-887 limits assumed): as the sequence (P08514 32-887 limits assumed) above
T1 sequence (P08514 891-1039 limits assumed): as the sequence (P08514 891-1039 limits assumed) above
T1 sequence (P05106 27-788): as the sequence (P05106 27-788) above

Regarding `CC(COc1ccc(N2CCN(c3ccncc3)CC2)cc1)CC(=O)O` (racemic) [Example 203, RS 3-Methyl-4-[4-[4-(4-pyridyl)piperazin-1-yl]phenoxy]butyric acid trifluoroacetate], the “Test (a): pA2 value indicating potency of platelet aggregation inhibition” value in data set [1] worked out at 7.2. Moreover, the “Test (b): pIC50 (-log(IC50)), 50% inhibition of biotinylated fibrinogen binding to GPIIb/IIIa” value in data set [2] was 8. Further, the “adverse effects in the liver” value in data set [3] was “Adverse effects were noted in the livers of six of the group of ten rats”.
With `COC(=O)COc1ccc(C(=O)CN2CCN(c3ccncc3)CC2)cc1` [Example 1, Methyl 4-[2-[4-(4-pyridyl)piperazin-1-yl]acetyl]phenoxyacetate], in data set [1], the Kb was 0.158 to 0.316 µM. Moreover, the IC50 in data set [2] was 0.398 to 1.58 µM. The “duration of activity when dosed orally” value in data set [4] is on record as “up to 12 hours”.
As to `O=C(O)CC1CCN(C(=O)CN2CCN(c3ccncc3)CC2)CC1` [Example 30, 2-[1-[2-[4-(4-Pyridyl)piperazin-1-yl]acetyl]piperidin-4-yl]acetic acid], in data set [1], the Kb is 5.01 µM. In data set [2], the IC50 was 1.26 µM.
In the same order, the values of `Cc1ccc(S(=O)(=O)NCc2ccc(CCN3CCN(c4ccncc4)CC3)cc2)cc1` [Example 186] are 5.01 µM and 1.26 µM.
On to `CC(C)(C)c1cc(C(=O)CN2CCN(c3ccncc3)CC2)cc(C(C)(C)C)c1OCC(=O)O` [Example 130, 4-[2-[4-(4-Pyridyl)piperazin-1-yl]acetyl]-2,6-di-tert-butylphenoxyacetic acid], for which, in data set [1], the Kb is above 100 µM. Besides, in data set [2], the IC50 is 3.98 µM.
The corresponding values for `COC(=O)CC(C)NC(=O)c1ccc(N2CCN(c3ccncc3)CC2)cc1` (stereo not drawn) [Example 60, Methyl 3-[4-[4-(4-pyridyl)piperazin-1-yl]benzamido]butyrate] are 10 µM and 15.8 µM.
For the compound `O=C(O)c1ccc(Oc2ccc(N3CCN(c4ccncc4)CC3)cc2)nc1` [Example 233, 6-[4-[4-(4-Pyridyl)piperazin-1yl]phenoxy]pyridine-3-carboxylic acid], the Kb in data set [1] was 6.31 µM. Also, in data set [2], the IC50 was 0.501 µM.
Consider `COC(=O)COc1ccc(OCCC2CCN(c3ccncc3)CC2)cc1` [Example 159, Methyl 4-[2-[1-(4-pyridyl)piperidin-4-yl]ethoxy]phenoxyacetate], for which the Kb in data set [1] was 0.501 µM. In data set [2], the IC50 was 2 µM.
In the same order, the values of `O=C(N[C@@H](Cc1ccc(OCCC2CCN(c3ccncc3)CC2)cc1)C(=O)O)OCc1ccccc1` [Example 94, 2-S-(Benzyloxycarbonylamino)-3-[4-[2-[1-(4-pyridyl)piperidin-4-yl]ethoxy]phenyl]propionic acid] are 0.316 µM and 0.00251 µM.
The corresponding values for `COC(=O)[C@H](Cc1ccc(OCCC2CCN(c3ccncc3)CC2)cc1)NS(C)(=O)=O` [Example 85, Methyl 2-S-(methsulphonylamino)-3-[4-[2-[1-(4-pyridyl)piperidin-4-yl]ethoxy]phenyl]propionate] are 1.58 µM and 0.251 µM.
The corresponding values for `Cc1ccc(S(=O)(=O)NCCC2CCN(C(=O)CN3CCN(c4ccncc4)CC3)CC2)cc1` [Example 223, N-[2-[1-[2-[4-(4-pyridyl)piperazin-1-yl]acetyl]piperidin-4-ylethyl]-4-methylphenylsulphonamide, dihydrochloride] are 1 µM and 1.58 µM.
With `CCOC(=O)CCCCOc1cccc(N2CCN(c3ccncc3)CC2)c1` [Example 228, Ethyl 3-[4-(4-pyridyl)piperazin-1-yl]phenoxypentanoate], the Kb in data set [1] was 10 µM. For the same compound, the IC50 in data set [2] is above 100 µM.
The corresponding values for `O=C(O)CCCCOc1ccc(N2CCN(c3ccncc3)CC2)cc1` [Example 53, 5-[4-[4-(4-Pyridyl)piperazin-1-yl]phenoxy]pentanoic acid] are 1.58 µM and 1.26 µM.
The corresponding values for `COC(=O)[C@H]1CC[C@H](Oc2ccc(N3CCN(c4ccncc4)CC3)cc2)CC1` [Example 230, Trans-methyl-4-[4-[4-(4-pyridyl)piperazin-1-yl]phenoxy]cyclohexyl carboxylate] are 10 µM and 5.01 µM.
On to `CC(C)(C)OC(=O)COc1ccc(C(=O)CN2CCN(c3ccncc3)CC2)cc1` [Example 138, tert-Butyl 4-[2-[4-(4-pyridyl)piperazin-1-yl]acetyl]-phenoxyacetate], for which, in data set [1], the Kb is 10 µM. In addition, the IC50 in data set [2] was 12.6 µM.
The corresponding values for `Cc1cc(N2CCN(CC(=O)c3ccc(OCC(=O)O)cc3)CC2)c2ccccc2n1` [Example 42, 4-[2-[4-(2-Methyl-4-quinolinyl)piperazin-1-yl]acetyl]phenoxyacetic acid] are 50.1 µM and 6.31 µM.
The corresponding values for `O=C(O)CCCOc1ccc(N2CCN(c3ccncc3)CC2)cc1` [Example 51, 4-[4-[4-(4-Pyridyl)piperazin-1-yl]phenoxy]butyric acid] are 0.0126 to 0.1 µM and 0.00398 to 0.0251 µM.
Turning to `CCCCS(=O)(=O)NC(CC1CCN(C(=O)CN2CCN(c3ccncc3)CC2)CC1)C(=O)O` (racemic) [Example 111], the Kb in data set [1] was 5.01 µM. Further, the IC50 in data set [2] was 6.31 µM.
The corresponding values for `O=C(O)CCCCN1CCN(c2ccncc2)CC1` [Example 196, 5-[(4-Pyridyl)piperazin-1-yl]pentanoic acid, dihydrochloride salt] are 100 µM and 6.31 µM.
The corresponding values for `CCCCC(=O)N[C@@H](Cc1ccc(OCCC2CCN(c3ccncc3)CC2)cc1)C(=O)O` [Example 93, 2-S-(Pentanoylamino)-3-[4-[2-[1-(4-pyridyl)piperidin-4-yl]ethoxy]phenyl]propionic acid] are 0.0126 µM and 0.00316 µM.
In the same order, the values of `CCOC(=O)c1ccc(C(=O)CN2CCN(c3ccncc3)CC2)cc1` [Example 131, Ethyl 4-[2-[4-(4-pyridyl)piperazin-1-yl]acetyl]benzoate] are 25.1 µM and 31.6 µM.
`COC(=O)COc1ccc(C(=O)CN2CCN(c3ccncn3)CC2)cc1` [Example 47, Methyl 4-[2-[4-(4-pyrimidinyl)piperazin-1-yl]acetyl]phenoxyacetate]: the Kb in data set [1] is 6.31 µM. Moreover, the IC50 in data set [2] was 39.8 µM.
The corresponding values for `CCCCS(=O)(=O)N[C@@H](Cc1ccc(OCCCCC2CCN(c3ccncc3)CC2)cc1)C(=O)O` [Example 84, 2-S-(n-Butylsulphonylamino)-3-[4-[4-[1-(4-pyridyl)piperidin-4-yl]butoxy]phenyl]propionic acid] are 0.0631 µM and 0.02 µM.
The corresponding values for `COc1cc(C(=O)CN2CCN(c3ccncc3)CC2)ccc1OCC(=O)O` [Example 6, 4-[2-[4-(4-Pyridyl)piperazin-1-yl]acetyl]-2-methoxyphenoxyacetic acid] are 0.0631 µM and 0.0251 µM.
The corresponding values for `CCOC(=O)COc1ccc(C(=O)CN2CCN(c3ccncc3)CC2)cc1` [Example 136, Ethyl-4-[2-[4-(4-pyridyl)piperazin-1-yl]acetyl]phenoxyacetate] are 0.126 µM and 2.51 µM.
As for `CC(C)(C)OC(=O)COC1CCCN(C(=O)CN2CCN(c3ccncc3)CC2)C1` (stereo not drawn) [Example 103, Tert-butyl 1-[2-[4-(4-pyridyl)piperazin-1in-1-yl]acetyl]piperidin-3-yloxyacetate], the Kb in data set [1] is 31.6 µM. In data set [2], the IC50 is 7.94 µM.
